For assay [1], the target named is T1, menin/MLL (terbium chelate-labeled menin, FITC-MBM1 peptide) (Homo sapiens, UniProt O00255, T541A).
T1 construct: Menin (a.a 1-610-6xhis tag)
T1 sequence (O00255 with tags, fused parts or gaps T541A): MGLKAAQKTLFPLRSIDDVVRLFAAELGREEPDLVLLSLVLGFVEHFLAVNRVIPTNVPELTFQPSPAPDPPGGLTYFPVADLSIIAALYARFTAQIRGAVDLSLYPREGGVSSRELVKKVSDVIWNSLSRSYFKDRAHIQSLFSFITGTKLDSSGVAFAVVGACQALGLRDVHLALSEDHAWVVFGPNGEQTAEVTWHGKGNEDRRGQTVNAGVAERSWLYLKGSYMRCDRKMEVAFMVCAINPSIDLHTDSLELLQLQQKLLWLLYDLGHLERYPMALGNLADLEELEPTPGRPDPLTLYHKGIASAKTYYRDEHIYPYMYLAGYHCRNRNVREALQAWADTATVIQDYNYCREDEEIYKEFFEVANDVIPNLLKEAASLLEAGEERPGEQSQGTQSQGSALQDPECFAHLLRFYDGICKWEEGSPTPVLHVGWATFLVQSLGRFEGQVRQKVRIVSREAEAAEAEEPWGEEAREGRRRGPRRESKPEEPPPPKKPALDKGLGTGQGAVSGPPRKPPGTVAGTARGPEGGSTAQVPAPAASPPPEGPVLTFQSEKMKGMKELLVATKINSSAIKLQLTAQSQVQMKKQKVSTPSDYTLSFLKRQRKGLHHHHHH
The assay is described as follows: Menin/MLL homogenous time-resolved fluorescence (HTRF) assay. The class given is binding. The following applies: 30 min incubation. Summed up:
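Terbium-labeled menin (aa 1-610, His-tagged; 200 pM) preincubated 30 min with compound, then 75 nM FITC-MBM1 peptide added for 15 min at ambient temperature in pH 7.5 Tris buffer, 0.5% DMSO. HTRF ratio 520/490 nm converted to % inhibition. IC50 came from an 11-point four-fold titration from 10 μM, floor 0.1 nM.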

For another assay, the system named is MOLM14 cells. The assay is described as follows: Proliferation assay, spheroid-like growth, MOLM14 (MLL-AF9 rearranged). The assay is classed as cell-based, human. As to conditions: Homo sapiens, MOLM-14, 192 h, 8 days, confluence as measure of spheroid size, read-out: spheroid assay_OneTime MOLM14 IC50. The gist of the method:
(§1)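 Cells seeded in ultra-low attachment round-bottom wells (200 MOLM14 or 300 KO-52 per well) with compound at several concentrations, DMSO 0.3%, grown 8 days at 37° C, 5% CO2. Spheroid size taken as confluence from day-8 live-cell images; IC50 from variable-slope fit, DMSO as 0% and high-dose reference compound as 100% effect.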

The next assay has as its system KO-52 cells. As to the kind of experiment: Proliferation assay, spheroid-like growth, KO-52 (MLL wildtype control cell line). The class given is cell-based, human. As to conditions: Homo sapiens, 192 h, KO-52 control cells, 8 days, confluence as measure of spheroid size; read-out: spheroid assay_OneTime KO-52 IC50. The gist of the method:
as §1

Take `CC(C)[C@H]([C@H]1C[C@@H](N2CC3(CCO3)C2)C1)N1CC2(CCN(c3ncnnc3Oc3ccc(F)cc3-c3cnncc3C3CC3)C2)C1` (single isomer, unassigned) [Compound 84]: the values for the IC50 (in assay [1]; with MOLM14 cells; in the assay with KO-52 cells) were 0.0055 µM, 0.22 µM and greater than 15 µM, respectively.
`CC(C)[C@H]([C@H]1C[C@H](N2CC3(CCO3)C2)C1)N1CC2(CCN(c3ncnnc3Oc3ccc(F)cc3-c3cnncc3C3CC3)C2)C1` (single isomer, unassigned) [Compound 84a]: the IC50 (in general, the concentration that gives 50% inhibition) in assay [1] is 0.0215 µM; in the assay on MOLM14 cells, 0.85 µM; with KO-52 cells it was greater than 15 µM.
In the same order, the values of `CC(C)[C@@H]([C@H]1C[C@@H](N2CCC(O)C(F)C2)C1)N1CC2(CCN(c3ncnnc3Oc3ccc(F)cc3-c3cncnc3C3CC3)C2)C1` (single isomer, unassigned) [Compound 85] are 0.0254 µM, 1.56 µM and greater than 15 µM.
In the same order, the values of `CC(C)[C@@H]([C@H]1C[C@H](N2CCC(O)C(F)C2)C1)N1CC2(CCN(c3ncnnc3Oc3ccc(F)cc3-c3cncnc3C3CC3)C2)C1` (single isomer, unassigned) [Compound 86] are 0.0172 µM, 0.65 µM and greater than 15 µM.
With `CC1CN([C@H]2C[C@@H]([C@H](C(C)C)N3CC4(CCN(c5ncnnc5Oc5ccc(F)cc5-c5cncnc5C5CC5)C4)C3)C2)CCC1O` (single isomer, unassigned) [Compound 87], the IC50 was 0.0019 µM in assay [1], 0.82 µM with MOLM14 cells and greater than 15 µM in the assay on KO-52 cells.
In the case of `CC(C)[C@@H]([C@H]1C[C@@H](N2CCC(O)CC2)C1)N1CC2(CCN(c3ncnnc3Oc3ccc(F)cc3-c3cncnc3C3CC3)C2)C1` (single isomer, unassigned) [Compound 88], the IC50 in assay [1] is 0.0023 µM; in the assay with MOLM14 cells, 0.41 µM; in the assay with KO-52 cells, greater than 15 µM.
For `CC(=O)N1CCN([C@H]2C[C@@H]([C@H](C(C)C)N3CC4(CCN(c5ncnnc5Oc5ccc(F)cc5-c5cccnc5C5CC5)C4)C3)C2)CC1` (single isomer, unassigned) [Compound 89], in that order: 0.0002 µM, 0.02 µM and 6.18 µM.
For `CC(C)[C@@H]([C@H]1C[C@@H](N(C)C)C1)N1CC2(CCN(c3ncnnc3Oc3ccc(F)cc3-c3cccnc3C3CC3)C2)C1` (single isomer, unassigned) [Compound 90], in that order: 0.0001 µM, 0.002 µM and 0.54 µM.
In the same order, the values of `CC(C)[C@@H]([C@H]1C[C@H](N(C)C)C1)N1CC2(CCN(c3ncnnc3Oc3ccc(F)cc3-c3cccnc3C3CC3)C2)C1` (single isomer, unassigned) [Compound 91] are 0.0001 µM, 0.026 µM and 1.03 µM.
For the compound `CC(C)[C@@H]([C@H]1C[C@@H](N2CCN(C(=O)N(C)C)CC2)C1)N1CC2(CCN(c3ncnnc3Oc3ccc(F)cc3-c3cccnc3C3CC3)C2)C1` (single isomer, unassigned) [Compound 92], the results for the IC50 (in assay [1]; in the assay on MOLM14 cells; with KO-52 cells) were 0.0001 µM, 0.007 µM and 0.78 µM, respectively.
For `CC(C)[C@@H]([C@H]1C[C@@H](N2CCC[C@@H](O)C2)C1)N1CC2(CCN(c3ncnnc3Oc3ccc(F)cc3-c3cccnc3C3CC3)C2)C1` (single isomer, unassigned) [Compound 93], in that order: 0.0001 µM, 0.003 µM and 0.49 µM.
For `CC(C)[C@H]([C@H]1C[C@@H](N2CC3(COC3)C2)C1)N1CC2(CCN(c3ncnnc3Oc3ccc(F)cc3-c3ncc(C#N)cc3C3CC3)C2)C1` (single isomer, unassigned) [Compound 94], in that order: 0.0001 µM, 0.025 µM and 3.39 µM.
